Experimental findings from US8362090B2, “Methods and related compositions using specific flavonoids and indanes to reduce weight and inhibit lipase, α-amylase and α-glucosidase activity in mammals” (Gateway Health Alliances, Inc., priority 2007, dated 2013) are described below.

Where only a bound is given, the exact number is not on record here.

In one assay the target is T1, Human pancreatic lipase (Homo sapiens, UniProt P16233).
T1 construct: purchased Sigma
T1 sequence (P16233 17-465): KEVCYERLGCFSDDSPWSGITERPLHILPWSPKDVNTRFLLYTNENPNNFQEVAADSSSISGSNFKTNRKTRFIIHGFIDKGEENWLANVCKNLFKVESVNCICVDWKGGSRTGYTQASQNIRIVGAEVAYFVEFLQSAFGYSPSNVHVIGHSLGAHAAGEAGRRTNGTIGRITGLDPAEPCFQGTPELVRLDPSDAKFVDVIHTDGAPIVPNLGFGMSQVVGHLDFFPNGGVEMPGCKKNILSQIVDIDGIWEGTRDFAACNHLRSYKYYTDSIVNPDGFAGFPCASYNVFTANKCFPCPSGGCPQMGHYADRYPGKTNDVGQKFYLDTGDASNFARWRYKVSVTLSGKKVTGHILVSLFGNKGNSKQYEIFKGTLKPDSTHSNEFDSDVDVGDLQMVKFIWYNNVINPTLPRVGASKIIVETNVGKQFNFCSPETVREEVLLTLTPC
T1 sequence (P02703 23-112 partner): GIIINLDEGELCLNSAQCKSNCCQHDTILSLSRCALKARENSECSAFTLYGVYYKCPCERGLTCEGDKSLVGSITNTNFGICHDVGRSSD
Kind of assay: Lipase assay (Sigma Lipase-PS Kit). The following applies: same top concentration (0.15 mg/ml). The format is biochemical. The protocol:
(§1) The purified compounds and extracts were made up 2 mg/ml solutions in water using initially a drop of DMSO if required for solubility.
Sigma Lipase-PS Kit (Catalogue Number 805-A)
Human pancreatic lipase was diluted 1.5:5 prior to use. […] Color formation was measured at 550 nm after 30 minutes.

Assay [1] deals with T2, porcine pancreatic amylase (Sus scrofa, UniProt P00690).
T2 construct: purchased Sigma A6255
T2 sequence (P00690 16-511): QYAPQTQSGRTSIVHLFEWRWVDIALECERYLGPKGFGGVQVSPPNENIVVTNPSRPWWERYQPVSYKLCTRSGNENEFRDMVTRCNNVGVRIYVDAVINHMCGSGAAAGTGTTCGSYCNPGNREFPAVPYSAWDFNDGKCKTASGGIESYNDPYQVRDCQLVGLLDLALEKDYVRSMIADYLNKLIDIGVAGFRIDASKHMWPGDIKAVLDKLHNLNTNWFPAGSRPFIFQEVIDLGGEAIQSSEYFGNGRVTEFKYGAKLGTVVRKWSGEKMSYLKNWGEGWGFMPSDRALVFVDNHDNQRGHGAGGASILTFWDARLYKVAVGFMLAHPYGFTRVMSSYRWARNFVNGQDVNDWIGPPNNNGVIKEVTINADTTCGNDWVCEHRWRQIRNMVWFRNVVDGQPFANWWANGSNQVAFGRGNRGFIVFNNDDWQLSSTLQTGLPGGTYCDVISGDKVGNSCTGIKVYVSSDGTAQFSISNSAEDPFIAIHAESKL
Nature of the assay: Amylase assay (Sigma INFINITY reagent). The format is biochemical, pig. The following applies: tested at 0.12 mg/ml, mean n=3. The protocol: as §1
Sigma INFINITY Powder Reagent (Catalogue Number 568-20)
Sigma α-amylase (A6255, porcine pancreatic amylase as saline suspension), diluted to 35 units/ml. […] The rate of color formation was measured over five minutes, after which the final absorbance was measured at 405 nm as an endpoint recording.

Assay [2] concerns α-glucosidase (G5003, from S. cerevisiae). Kind of assay: α-Glucosidase assay (p-nitrophenyl-α-D-glucopyranoside). Type of assay: biochemical. The conditions noted are these: tested at 0.28 mg/ml, mean n=3. The protocol:
as §1

Consider `CCCCCCCCCCC[C@@H](C[C@@H]1OC(=O)[C@H]1CCCCCC)OC(=O)[C@H](CC(C)C)NC=O` [Orlistat], for which, at Human pancreatic lipase, the inhibition (commonly the share of the control response that was lost under treatment) at 150 µg/mL is at most 60%. Consider `Oc1ccc(/C=C2\c3cc(O)cc(O)c3C(c3ccc(O)cc3)C2c2cc(O)cc(O)c2)cc1` (stereo not drawn) [compound 6, parthenocissin A], for which the “α-amylase inhibition (in words, FIG. 2)” value in assay [1] is reported as “good inhibition”. `Oc1ccc(C=C2c3c(O)cc(O)cc3C(c3ccc(O)cc3)C2c2cc(O)ccc2O)cc1` (stereo not drawn) [compound 7, 3-(4-hydroxybenzylidene)-2-(2,5-dihydroxyphenyl)-1-(4-hydroxyphenyl)indane-4,6-diol]: the “α-glucosidase inhibition (in words, FIG. 2)” value in assay [2] is “fairly specific as an inhibitor”. On to `COc1cc(O)c2c(=O)c(O[C@@H]3O[C@@H](C)[C@H](O)[C@@H](O)[C@H]3O)c(-c3ccc(O)c(O)c3)oc2c1` [compound 3, rhamnitrin], for which, in assay [1], the “α-amylase inhibition (in words, FIG. 2)” value is reported as “inhibition to be restored”. As to quercitrin-3-O″-acetate [compound 5], the “α-amylase inhibition (in words, FIG. 2)” value in assay [1] was “inhibition to be restored”. In assay [2], the “α-glucosidase inhibition (in words, FIG. 2)” value is recorded as “promoted the glucosidase activity”.
